Values joined by “and” are separate entries in the source; they are usually repeats but may differ in a detail not shown here. Equal values may be shown once.
Key:
Assay type in all cases: cell-based, human
[1] = tested on: RelB cleavage in Jurkat T cells; test: CD3/CD28-induced RelB cleavage, Western blot (MALT1 protease activity); conditions: for RelB cleavage in stimulated Jurkat T cells: result in words
Procedure: (§1) Western blot analysis of RelB and N4BP1 cleavage was used to test the effect of small molecules on MALT1 protease activity. To this end, 3 million Jurkat T cells were pretreated with compounds for 24 hours in serum-free media, and then 5 μM MG-132 was added for 1 hour before stimulation with CD3/CD28 (Stemcell Technologies, catalog 10971), and lysed in RIPA buffer (Millipore, catalog 20-188) with protease and phosphatase inhibitor cocktail (Pierce, catalog 78446). IKKα/β phosphorylation and IκBα phosphorylation were used as measures of MALT1 scaffolding activity, while ERK1/2 phosphorylation was used as a control. Two million Jurkat T cells were treated with 1 μM M1i-124, 1 μM M1i-124d1, or DMSO in serum-free media for 16 hours, stimulated with CD3/CD28 for 0, 5, 10, or 20 minutes, and then immediately lysed in RIPA buffer with protease and phosphatase inhibitors. For experiments evaluating RelB cleavage and phosphorylation of IκBα in TMD8 cells, cells were treated with compounds for 24 hours in media containing 5% FBS. For RelB Western blot analysis, 5 μM MG-132 (Cell Signaling Technology, catalog 2194s) was added 4 hours before lysis in RIPA lysis buffer with protease/phosphatase inhibitors.

[2] = tested on: N4BP1 cleavage in Jurkat T cells; test: CD3/CD28-induced N4BP1 cleavage, Western blot (MALT1 protease activity); conditions: for N4BP1 cleavage ratio: Jurkat T cells, 1 μM pretreatment, + CD3/CD28; for N4BP1 cleavage in stimulated Jurkat T cells: result in words
Procedure: as §1

[3] = tested on: IL2 mRNA in Jurkat T cells; test: IL2 mRNA induction by PMA/Iono, qRT-PCR; conditions: for IL2 mRNA (normalized): Jurkat, + PMA/Iono; for PMA/Iono-induced IL2 gene expression: pretreatment 4 hours, result in words
Procedure: qRT-PCR. Jurkat T cells grown in serum free media for 4 hours with indicated inhibitors prior to stimulation with PMA/Ionomycin for 4 hours. […]
Total RNA extraction from the […]
(§2) Kit. RNA was transcribed into cDNA using High-Capacity cDNA Reverse Transcription Kit (Applied Biosystems, Cat# 4368814) according to manufacturer’s instructions. RT-PCR was performed using TaqMan Universal PCR Master Mix (Applied Biosystems, Cat# 4304437) and run on a StepOnePlus Real-Time PCR machine (Applied Biosystems). The following probes from ThermoFisher Scientific were used for qRT-PCR: IL2 TaqMan probe Hs00174114, IL6 TaqMan

[4] = tested on: IL-2 secretion from Jurkat T cells; test: Secreted IL-2 ELISA after PMA/Iono; conditions: for IL-2: PMA/Iono; for IL-2 secretion from Jurkat T cells: result in words
Procedure: Cytokine ELISAs. Cytokines in cell culture supernatants were measured 20-24h after treatment with 0, 0.01, 0.03, 0.1, 0.3, 1, or 3 µM of compounds using the following ELISA kits according to the manufacturer’s instructions: Human IL-2 ELISA (BioLegend Cat# 431804), Human IL-6 ELISA (BioLegend Cat# 430504), and Human IL-10 ELISA (BioLegend Cat# 430604). […]
Jurkat T cells were pretreated with specific doses of compounds for 8 hours in serum-free media, then stimulated with PMA/ionomycin for 16 hours prior to the collection of supernatants. […]

[5] = tested on: BCL10 and MALT1 protein in OCI-Ly3 cells; test: BCL10 and MALT1 protein levels, Western blot; conditions: OCI-Ly3, 1 μM, 72 hours, result in words
Procedure: (§3) To test the possibility that M1i-124 destabilizes BCL10 and MALT1 within the cell as a consequence of disrupting BCL10-MALT1 interaction, we treated ABC-DLBCL cell lines (TMD8, OCI-Ly3) with M1i-124 for 72 hours and measured the cellular levels of the BCL10 and MALT1 proteins by Western blotting.
(§4) Figure 5 M1i-124 treatment leads to loss of BCL10 and MALT1 protein content in ABC-DLBCL cells. (A) Representative Western blots showing loss of BCL10 and MALT1 proteins, but not ERK1/2 protein, in TMD8 and OCI-Ly3 cells after 72 hours of treatment with 1 μM M1i-124. […] (B) Representative Western blots showing time-dependent loss of BCL10 and MALT1 in TMD8 cells treated with 1 μM M1i-124. (C) Representative Western blots showing dose-dependent loss of BCL10 and MALT1 proteins in TMD8 cells treated with […]. For A–C, band quantifications, normalized for GAPDH, are indicated below each blot. (D) Time-dependent change in BCL10 and MALT1 mRNA expression levels with 1 μM M1i-124 treatment in TMD8 cells. Statistical analysis was performed using unpaired t test between 0 hours and 72 hours (mean ± SEM; n = 3). *P < 0.05, ****P < 0.0001.

[6] = tested on: BCL10 and MALT1 protein in TMD8 cells; test: BCL10 and MALT1 protein levels, Western blot; conditions: 72 hours, result in words; for BCL10 and MALT1 protein levels: TMD8, 1 μM
Procedure: as §3, §4

OCI-Ly1 cells = test: Cell proliferation, trypan blue cell count; conditions: for OCI-Ly1 Viable Cells: Mepazine at 1 µM; for expansion of culture (proliferation): OCI-Ly1, single 1 μM dose, 12 days, result in words
Text: (§5) Cell proliferation, viability, and apoptosis assays. Starting with ~20,000 DLBCL cells in 5% FBS
(§6) at day 0, cell number was counted using the trypan blue dye exclusion method with Vi-CELL cell

OCI-Ly7 cells = test: Cell proliferation, trypan blue cell count; conditions: for Viable cell count: second block headed OCI-Ly1, Day 0, Mepazine at 1 µM; for expansion of culture (proliferation): OCI-Ly7, single 1 μM dose, 12 days, result in words
Text: as §5, §6

TMD8 cells = test: Cell proliferation, trypan blue cell count; conditions: for TMD8 Viable Cells: Mepazine at 1 µM; for expansion of culture (proliferation): TMD8, single 1 μM dose, 12 days, result in words
Text: as §5, §6

OCI-Ly3 cells [7] = test: Cell proliferation, trypan blue cell count; conditions: Mepazine at 1 µM
OCI-Ly3 cells [8] = test: IL6 and IL10 mRNA, qRT-PCR; conditions: for IL6 and IL10 mRNA levels: OCI-Ly3, 1 μM, 24 hours, result in words; for IL6 mRNA levels (normalized) / IL10 mRNA levels (normalized): Suppl Fig. 5C
Procedure: Total RNA extraction from cell lines was performed using RNeasy Plus Mini Kit (Qiagen, Cat# 74136). […]
as §2

Compound | N4BP1 cleavage ratio [2] | BCL10 and MALT1 protein levels [5] | BCL10 and MALT1 protein levels [6] | OCI-Ly1 Viable Cells (OCI-Ly1 cells; Day 0) | Viable cell count (OCI-Ly7 cells) | TMD8 Viable Cells (TMD8 cells; Day 0) | OCI-Ly3 Viable Cells (OCI-Ly3 cells [7]; Day 0) | RelB cleavage in stimulated Jurkat T cells [1] | N4BP1 cleavage in stimulated Jurkat T cells [2] | IL2 mRNA (normalized) ([3]; 1 μM) | PMA/Iono-induced IL2 gene expression [3] | IL-2 ([4]; Jurkat, 0.01uM) | IL-2 ([4]; Jurkat, 0.03uM) | IL-2 ([4]; Jurkat, 0.1uM) | IL-2 ([4]; Jurkat, 0.3uM) | IL-2 ([4]; Jurkat, 1uM) | IL-2 ([4]; Jurkat, 3uM) | IL-2 secretion from Jurkat T cells [4] | IL6 and IL10 mRNA levels (OCI-Ly3 cells [8]) | IL6 mRNA levels (normalized) (OCI-Ly3 cells [8]) | further results
CN1CCCC(CN2c3ccccc3Sc3ccccc32)C1 (centres unmarked) [Mepazine, mepazine, reference compound] | 1.53 and 0.8223 and 0.868 and 0.8072 | not observed | not observed | 40000 and 20000 | 20000 | 20000 | 20000 |  |  |  |  |  |  |  |  |  |  |  |  |  | Cl-RelB/FL-RelB ratio ([1]; Jurkat T cells, 1 μM pretreatment, + CD3/CD28): 0.1288 and 0.1917 and 0.1562 and 0.1166; IL2 mRNA (normalized) ([3]; 5 μM): 0.1528 and 0.1464 and 0.1468; activity at 1 µM ([4]; Homo sapiens, Jurkat, PMA/Iono treated, 1 uM, Suppl Fig. 4A, read-out: IL-2 protein level (% of control)): 67.8%; IL-2 protein level (% of control) ([4]; PMA/Iono treated, 1 uM, Suppl Fig. 4A): 72.9318 % of control and 62.9989 % of control; OCI-Ly1 Viable Cells (OCI-Ly1 cells; Day 7): 99000 and 98000 and 71000; OCI-Ly1 Viable Cells (OCI-Ly1 cells; Day 10): 280000 and 250000 and 290000; TMD8 Viable Cells (TMD8 cells; Day 12): 830000 and 460000 and 590000
O=S(=O)(NCc1ccc2c(c1)OCO2)c1ccc(Cc2ccc(S(=O)(=O)NCc3ccc4c(c3)OCO4)cc2)cc1 [M1i-124] |  | potently induced the loss of both MALT1 and BCL10 proteins | potently induced the loss of both MALT1 and BCL10 proteins | 40000 and 20000 | 20000 and 40000 | 20000 | 20000 | suppressed the cleavage | suppressed the cleavage | 0.1638 and 0.218 and 0.2454 | reduction in PMA/Iono–induced IL2 gene expression | 670.787 pg/mL and 749.967 pg/mL and 766.89 pg/mL | 564.302 pg/mL and 507.452 pg/mL and 318.494 pg/mL | 327.873 pg/mL and 411.405 pg/mL and 266.705 pg/mL | 173.693 pg/mL and 247.879 pg/mL and 193.913 pg/mL | 222.117 pg/mL and 210.011 pg/mL and 120.037 pg/mL | 304.615 pg/mL and 288.86 pg/mL and 235.369 pg/mL | dose-dependent reduction in IL-2 secretion | significantly decrease IL6 and IL10 mRNA levels | 0.63 and 0.57 and 0.56 and 0.54 and 0.48 and 0.61 | IL-2 protein level (% of control) ([4]; PMA/Iono treated, Suppl Fig. 4A): 34.6066 % of control and 35.497 % of control and 25.5648 % of control; IL10 mRNA levels (normalized) (OCI-Ly3 cells [8]): 0.7074 and 0.77 and 0.73 and 0.8 and 0.4913 and 0.4249 and 0.7438; ERK1/2 protein levels ([6]; 1 μM): no change; OCI-Ly1 Viable Cells (OCI-Ly1 cells; Day 12): 590000 and 720000 and 910000 and 860000 and 880000 and 890000; expansion of culture (proliferation) (OCI-Ly1 cells): no effect on expansion; expansion of culture (proliferation) (OCI-Ly7 cells): no effect on expansion; expansion of culture (proliferation) (TMD8 cells): significant reduction in the expansion
COc1ccc(CNS(=O)(=O)c2ccc(Cc3ccc(S(=O)(=O)NCc4ccc(OC)cc4)cc3)cc2)cc1 [M1i-124d1] | 0.7459 and 0.3808 and 0.4872 and 0.5302 | lesser effect | lesser effect | 40000 and 20000 | 20000 and 40000 | 20000 | 20000 | suppressed the cleavage | suppressed the cleavage | 0.5238 and 0.3763 and 0.462 | reduction in PMA/Iono–induced IL2 gene expression | 893.077 pg/mL and 1049.97 pg/mL and 735.049 pg/mL | 736.84 pg/mL and 714.598 pg/mL and 588.162 pg/mL | 433.515 pg/mL and 416.061 pg/mL and 330.961 pg/mL | 349.469 pg/mL and 340.243 pg/mL and 270.034 pg/mL | 458.584 pg/mL and 443.361 pg/mL and 398.637 pg/mL | 550.731 pg/mL and 484.757 pg/mL and 435.445 pg/mL | dose-dependent reduction in IL-2 secretion | significantly decrease IL6 and IL10 mRNA levels | 0.61 and 0.76 and 0.58 and 0.67 and 0.68 | IL10 mRNA levels (normalized) (OCI-Ly3 cells [8]): 0.5473 and 0.5 and 0.74 and 0.4125 and 0.4002 and 0.6402; expansion of culture (proliferation) (OCI-Ly1 cells): no effect on expansion; expansion of culture (proliferation) (OCI-Ly7 cells): no effect on expansion; expansion of culture (proliferation) (TMD8 cells): significant reduction in the expansion; OCI-Ly3 Viable Cells (OCI-Ly3 cells [7]; Day 12): 340000 and 290000 and 320000

From publication PMC11996864, “A small-molecule inhibitor of BCL10-MALT1 interaction abrogates progression of diffuse large B cell lymphoma” (The Journal of Clinical Investigation, 2025)
